The results in this text go back to US8906901B2, “Administration of dipeptidyl peptidase inhibitors” (priority 2005, dated 2014).

The subject of this test is db/db (BKS.Cg—+Lepr^db/+Lepr^db) mice. Put plainly: Plasma glucose after 21 days of administration in powder chow, alone or with pioglitazone. The conditions noted are these: male db/db mice, 21 days in chow, fed condition; 0.03% (w/w) succinate salt of Compound I and/or 0.0075% (w/w) pioglitazone hydrochloride; mean (n=7) ± SD. It counts as in vivo. The text has this:
Male db/db (BKS.Cg—+Lepr^db/+Lepr^db) mice (6 weeks of age, CLEA Japan (Tokyo, Japan)) were divided into 4 groups (n=7 in each group) comprising Group A to Group D. Group A had free access to CE-2 powder chow (CLEA Japan) for 21 days. […] During 21 days of administration of the powder chow, there were not significant differences in the administration amount of the powder chow in the above 4 groups. After 21 days of administration of the powder chow, blood samples were taken from the orbital veins of the mice by capillary pipette under feeding condition, and plasma glucose levels were enzymatically measured by using Autoanalyzer 7080 (Hitachi, Japan). The values in the table means average (n=7)±standard deviation.

With `Cn1c(=O)cc(N2CCC[C@@H](N)C2)n(Cc2cc(F)ccc2C#N)c1=O` [Compound I, 2-[6-(3-Amino-piperidin-1-yl)-3-methyl-2,4-dioxo-3,4-dihydro-2H-pyrimidin-1-ylmethyl]-4-fluoro-benzonitrile], the “Plasma Glucose” value came out at 410.3 ± 47.9 mg/dL.
